Earlier results, collected in PMC9851200, “Multiparameter phenotypic screening for endogenous TFEB and TFE3 translocation identifies novel chemical series modulating lysosome function” (Autophagy, 2022).

Key:
Parameters in all cases: method as in original PKIS2 published data
[1] = target: T1, kinases (KINOMEscan panel) (Homo sapiens, UniProt O00329); settings: Published KINOMEscan; ref original PKIS2 published data; cited from earlier work
T1 sequence (O00329 1-1044): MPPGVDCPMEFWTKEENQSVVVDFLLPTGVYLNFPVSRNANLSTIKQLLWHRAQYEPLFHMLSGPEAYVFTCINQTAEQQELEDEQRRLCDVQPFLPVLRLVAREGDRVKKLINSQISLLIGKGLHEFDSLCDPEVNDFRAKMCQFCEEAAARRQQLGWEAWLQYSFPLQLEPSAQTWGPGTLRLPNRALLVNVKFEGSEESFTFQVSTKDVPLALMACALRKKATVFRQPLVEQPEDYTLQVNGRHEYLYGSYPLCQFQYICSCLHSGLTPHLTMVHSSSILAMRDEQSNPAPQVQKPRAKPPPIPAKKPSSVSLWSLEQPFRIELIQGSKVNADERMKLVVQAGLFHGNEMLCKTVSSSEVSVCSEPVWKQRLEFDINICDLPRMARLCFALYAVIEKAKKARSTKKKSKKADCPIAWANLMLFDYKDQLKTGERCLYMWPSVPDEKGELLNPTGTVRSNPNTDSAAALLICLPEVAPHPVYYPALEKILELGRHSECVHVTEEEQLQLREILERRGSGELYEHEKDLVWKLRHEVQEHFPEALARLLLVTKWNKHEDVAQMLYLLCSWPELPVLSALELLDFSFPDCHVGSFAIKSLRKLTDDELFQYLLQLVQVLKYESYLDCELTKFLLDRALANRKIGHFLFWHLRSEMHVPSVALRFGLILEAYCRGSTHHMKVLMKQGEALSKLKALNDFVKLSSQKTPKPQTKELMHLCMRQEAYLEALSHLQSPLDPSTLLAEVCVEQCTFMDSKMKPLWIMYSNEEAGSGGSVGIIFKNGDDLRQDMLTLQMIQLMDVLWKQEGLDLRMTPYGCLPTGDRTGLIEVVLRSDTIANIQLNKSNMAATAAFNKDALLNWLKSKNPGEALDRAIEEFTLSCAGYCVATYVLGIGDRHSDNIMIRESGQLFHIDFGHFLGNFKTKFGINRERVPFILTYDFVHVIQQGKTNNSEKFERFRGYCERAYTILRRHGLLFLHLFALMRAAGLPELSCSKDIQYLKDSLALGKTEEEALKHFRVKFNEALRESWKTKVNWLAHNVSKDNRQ

[2] = target: kinases (KINOMEscan panel) (Homo sapiens, UniProt O43293); settings: DAPK3; Published KINOMEscan; ref original PKIS2 published data; cited from earlier work
Sequence of kinases (KINOMEscan panel) (Homo sapiens, UniProt O43293) (O43293 whole entry): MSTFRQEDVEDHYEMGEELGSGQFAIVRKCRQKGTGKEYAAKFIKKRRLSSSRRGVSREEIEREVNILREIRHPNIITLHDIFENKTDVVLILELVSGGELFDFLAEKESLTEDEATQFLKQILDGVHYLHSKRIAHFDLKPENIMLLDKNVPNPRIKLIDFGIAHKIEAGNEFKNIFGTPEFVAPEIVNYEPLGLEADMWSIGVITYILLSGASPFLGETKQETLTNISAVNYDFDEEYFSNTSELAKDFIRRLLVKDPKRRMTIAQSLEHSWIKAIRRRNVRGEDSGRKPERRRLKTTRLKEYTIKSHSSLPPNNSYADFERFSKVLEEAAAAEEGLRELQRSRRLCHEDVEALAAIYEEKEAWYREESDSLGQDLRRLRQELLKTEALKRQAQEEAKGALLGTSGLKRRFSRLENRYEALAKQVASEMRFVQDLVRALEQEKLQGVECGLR

[3] = target: kinases (KINOMEscan panel) (Homo sapiens, UniProt P16591); settings: FER; Published KINOMEscan; ref original PKIS2 published data; cited from earlier work
Sequence of kinases (KINOMEscan panel) (Homo sapiens, UniProt P16591) (P16591 whole entry): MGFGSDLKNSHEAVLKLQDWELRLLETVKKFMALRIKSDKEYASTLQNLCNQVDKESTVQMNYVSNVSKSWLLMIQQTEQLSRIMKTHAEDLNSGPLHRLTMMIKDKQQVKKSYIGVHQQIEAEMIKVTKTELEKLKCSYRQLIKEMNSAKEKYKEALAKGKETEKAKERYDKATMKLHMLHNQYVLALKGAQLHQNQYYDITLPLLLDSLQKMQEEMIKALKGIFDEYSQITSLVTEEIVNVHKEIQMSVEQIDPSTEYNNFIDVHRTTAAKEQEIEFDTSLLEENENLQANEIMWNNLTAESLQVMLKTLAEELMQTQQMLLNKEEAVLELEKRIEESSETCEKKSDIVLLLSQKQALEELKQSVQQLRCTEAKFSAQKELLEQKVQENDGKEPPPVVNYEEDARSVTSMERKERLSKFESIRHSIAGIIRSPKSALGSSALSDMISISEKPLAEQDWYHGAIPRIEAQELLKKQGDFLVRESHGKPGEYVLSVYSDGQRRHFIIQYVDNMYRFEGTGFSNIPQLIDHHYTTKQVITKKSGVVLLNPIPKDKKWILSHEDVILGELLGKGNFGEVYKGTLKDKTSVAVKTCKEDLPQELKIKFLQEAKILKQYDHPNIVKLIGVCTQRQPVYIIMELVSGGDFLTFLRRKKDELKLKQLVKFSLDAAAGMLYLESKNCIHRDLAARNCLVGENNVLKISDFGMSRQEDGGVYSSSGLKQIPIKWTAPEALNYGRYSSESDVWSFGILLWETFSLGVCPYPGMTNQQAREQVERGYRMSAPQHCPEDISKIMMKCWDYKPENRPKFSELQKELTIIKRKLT

[4] = target: T2, kinases (KINOMEscan panel) (Homo sapiens, UniProt P43403); settings: Published KINOMEscan; ref original PKIS2 published data; cited from earlier work
T2 sequence (P43403 1-619): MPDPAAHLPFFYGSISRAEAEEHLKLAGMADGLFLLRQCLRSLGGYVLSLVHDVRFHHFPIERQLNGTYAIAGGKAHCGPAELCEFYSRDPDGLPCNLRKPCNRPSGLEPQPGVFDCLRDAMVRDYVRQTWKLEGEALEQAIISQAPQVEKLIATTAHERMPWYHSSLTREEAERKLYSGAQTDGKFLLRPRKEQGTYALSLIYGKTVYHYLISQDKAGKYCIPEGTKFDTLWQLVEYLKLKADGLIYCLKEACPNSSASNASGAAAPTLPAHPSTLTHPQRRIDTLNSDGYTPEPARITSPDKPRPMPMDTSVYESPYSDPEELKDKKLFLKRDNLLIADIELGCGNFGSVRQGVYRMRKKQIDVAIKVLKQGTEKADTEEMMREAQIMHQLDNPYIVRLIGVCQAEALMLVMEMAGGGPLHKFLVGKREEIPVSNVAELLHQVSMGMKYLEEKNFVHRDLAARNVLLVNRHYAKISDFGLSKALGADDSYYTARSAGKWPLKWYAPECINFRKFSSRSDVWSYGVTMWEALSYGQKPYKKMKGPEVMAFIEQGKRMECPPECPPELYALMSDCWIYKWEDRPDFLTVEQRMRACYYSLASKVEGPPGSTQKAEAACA

[5] = target: kinases (KINOMEscan panel) (Homo sapiens, UniProt P50613); settings: kinase CDK7; Published KINOMEscan; ref original PKIS2 published data; cited from earlier work
Sequence of kinases (KINOMEscan panel) (Homo sapiens, UniProt P50613) (P50613 whole entry): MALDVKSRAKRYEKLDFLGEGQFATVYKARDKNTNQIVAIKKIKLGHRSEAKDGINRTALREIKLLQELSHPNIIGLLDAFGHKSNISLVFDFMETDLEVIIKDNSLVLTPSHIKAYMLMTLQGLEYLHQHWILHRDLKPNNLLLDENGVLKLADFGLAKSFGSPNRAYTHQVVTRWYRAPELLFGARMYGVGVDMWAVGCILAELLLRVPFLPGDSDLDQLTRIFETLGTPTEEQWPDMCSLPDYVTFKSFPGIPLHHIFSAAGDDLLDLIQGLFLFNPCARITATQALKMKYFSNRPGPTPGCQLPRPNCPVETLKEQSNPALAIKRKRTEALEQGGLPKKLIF

[6] = target: kinases (KINOMEscan panel) (Homo sapiens, UniProt P68400); settings: CSNK2A1; Published KINOMEscan; ref original PKIS2 published data; cited from earlier work
Sequence of kinases (KINOMEscan panel) (Homo sapiens, UniProt P68400) (P68400 whole entry): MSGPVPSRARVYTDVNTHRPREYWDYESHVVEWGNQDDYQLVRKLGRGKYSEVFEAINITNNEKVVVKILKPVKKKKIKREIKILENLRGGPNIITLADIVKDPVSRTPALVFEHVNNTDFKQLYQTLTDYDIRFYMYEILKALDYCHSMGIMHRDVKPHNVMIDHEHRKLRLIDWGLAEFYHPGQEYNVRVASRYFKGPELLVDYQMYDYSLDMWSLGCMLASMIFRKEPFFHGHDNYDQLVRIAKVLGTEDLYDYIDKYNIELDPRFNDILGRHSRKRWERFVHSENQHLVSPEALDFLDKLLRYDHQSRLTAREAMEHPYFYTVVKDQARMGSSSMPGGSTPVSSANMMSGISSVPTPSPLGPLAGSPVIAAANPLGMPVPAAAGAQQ

[7] = target: kinases (KINOMEscan panel) (Homo sapiens, UniProt P78362); settings: SRPK2; Published KINOMEscan; ref original PKIS2 published data; cited from earlier work
Sequence of kinases (KINOMEscan panel) (Homo sapiens, UniProt P78362) (P78362 whole entry): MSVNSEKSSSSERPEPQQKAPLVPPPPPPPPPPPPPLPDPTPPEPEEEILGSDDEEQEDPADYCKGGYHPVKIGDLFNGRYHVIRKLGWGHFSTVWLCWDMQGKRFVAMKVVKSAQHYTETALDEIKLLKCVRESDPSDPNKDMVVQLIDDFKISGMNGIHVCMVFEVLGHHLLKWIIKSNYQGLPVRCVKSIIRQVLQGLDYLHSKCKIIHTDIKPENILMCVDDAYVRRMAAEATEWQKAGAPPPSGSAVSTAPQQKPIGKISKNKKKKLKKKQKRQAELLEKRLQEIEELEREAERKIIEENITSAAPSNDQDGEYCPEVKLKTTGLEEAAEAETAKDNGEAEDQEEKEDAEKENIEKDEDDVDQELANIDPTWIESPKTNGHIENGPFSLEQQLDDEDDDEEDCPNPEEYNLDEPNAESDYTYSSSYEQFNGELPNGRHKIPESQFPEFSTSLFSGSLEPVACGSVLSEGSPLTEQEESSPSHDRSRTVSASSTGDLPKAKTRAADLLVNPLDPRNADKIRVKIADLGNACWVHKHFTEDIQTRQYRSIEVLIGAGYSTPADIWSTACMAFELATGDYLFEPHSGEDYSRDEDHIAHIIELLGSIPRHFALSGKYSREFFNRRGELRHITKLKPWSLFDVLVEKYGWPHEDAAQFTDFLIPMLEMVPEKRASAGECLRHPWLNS

[8] = target: kinases (KINOMEscan panel) (Homo sapiens, UniProt Q00526); settings: CDK3; Published KINOMEscan; ref original PKIS2 published data; cited from earlier work
Sequence of kinases (KINOMEscan panel) (Homo sapiens, UniProt Q00526) (Q00526 whole entry): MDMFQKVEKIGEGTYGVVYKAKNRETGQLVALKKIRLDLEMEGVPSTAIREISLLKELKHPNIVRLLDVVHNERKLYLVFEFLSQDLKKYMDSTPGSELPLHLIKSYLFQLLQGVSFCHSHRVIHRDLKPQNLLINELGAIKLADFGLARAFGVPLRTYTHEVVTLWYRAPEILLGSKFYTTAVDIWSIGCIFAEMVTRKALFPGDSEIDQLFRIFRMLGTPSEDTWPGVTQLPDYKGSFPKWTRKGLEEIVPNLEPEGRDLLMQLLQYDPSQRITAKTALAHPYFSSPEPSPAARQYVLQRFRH

[9] = target: kinases (KINOMEscan panel) (Homo sapiens, UniProt Q07912); settings: TNK2; Published KINOMEscan; ref original PKIS2 published data; cited from earlier work
Sequence of kinases (KINOMEscan panel) (Homo sapiens, UniProt Q07912) (Q07912 whole entry): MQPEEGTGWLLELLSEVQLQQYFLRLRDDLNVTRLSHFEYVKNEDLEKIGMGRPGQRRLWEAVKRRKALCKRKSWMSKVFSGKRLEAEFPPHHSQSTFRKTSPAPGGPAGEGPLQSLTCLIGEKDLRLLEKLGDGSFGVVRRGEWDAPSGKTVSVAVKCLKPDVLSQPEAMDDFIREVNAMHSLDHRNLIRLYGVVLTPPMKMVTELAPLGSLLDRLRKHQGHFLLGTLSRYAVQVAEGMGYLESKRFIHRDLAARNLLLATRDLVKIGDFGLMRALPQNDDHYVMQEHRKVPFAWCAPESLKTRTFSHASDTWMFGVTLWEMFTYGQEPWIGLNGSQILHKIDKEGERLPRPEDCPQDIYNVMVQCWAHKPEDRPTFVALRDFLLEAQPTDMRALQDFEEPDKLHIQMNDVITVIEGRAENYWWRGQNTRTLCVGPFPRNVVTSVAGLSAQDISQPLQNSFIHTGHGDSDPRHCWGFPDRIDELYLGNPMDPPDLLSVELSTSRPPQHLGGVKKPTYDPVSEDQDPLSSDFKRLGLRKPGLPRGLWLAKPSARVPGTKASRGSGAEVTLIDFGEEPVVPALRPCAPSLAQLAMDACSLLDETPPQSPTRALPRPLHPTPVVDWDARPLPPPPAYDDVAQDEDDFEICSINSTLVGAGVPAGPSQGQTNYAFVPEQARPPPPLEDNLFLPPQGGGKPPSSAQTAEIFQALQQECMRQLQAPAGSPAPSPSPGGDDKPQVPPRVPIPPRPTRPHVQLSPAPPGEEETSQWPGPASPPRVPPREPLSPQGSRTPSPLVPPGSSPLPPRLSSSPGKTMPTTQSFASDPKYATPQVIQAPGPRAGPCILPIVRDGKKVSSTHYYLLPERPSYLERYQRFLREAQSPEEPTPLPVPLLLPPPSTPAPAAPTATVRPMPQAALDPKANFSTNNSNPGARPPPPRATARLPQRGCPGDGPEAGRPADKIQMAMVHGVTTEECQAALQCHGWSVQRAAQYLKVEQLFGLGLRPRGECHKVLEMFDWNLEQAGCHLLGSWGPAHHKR

[10] = target: kinases (KINOMEscan panel) (Homo sapiens, UniProt Q8IU85); settings: kinase CAMK1D; Published KINOMEscan; ref original PKIS2 published data; cited from earlier work
Sequence of kinases (KINOMEscan panel) (Homo sapiens, UniProt Q8IU85) (Q8IU85 whole entry): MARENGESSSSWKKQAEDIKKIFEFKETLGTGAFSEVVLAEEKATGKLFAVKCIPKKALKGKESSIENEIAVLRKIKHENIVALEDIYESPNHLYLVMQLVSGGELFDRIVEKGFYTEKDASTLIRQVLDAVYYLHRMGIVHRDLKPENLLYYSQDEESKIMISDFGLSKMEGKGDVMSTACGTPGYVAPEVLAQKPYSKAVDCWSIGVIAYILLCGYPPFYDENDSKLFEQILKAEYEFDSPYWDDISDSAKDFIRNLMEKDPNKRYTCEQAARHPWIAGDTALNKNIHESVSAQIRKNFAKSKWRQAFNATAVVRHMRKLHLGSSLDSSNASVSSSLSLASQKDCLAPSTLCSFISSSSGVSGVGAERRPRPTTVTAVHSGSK

## Cc1cccc(-c2nc(Nc3ccncc3)c3ccccc3n2)n1 [NK215]
[1]
  KINOMEscan PIK3CD: 0
[2]
  KINOMEscan DAPK3: 17
[3]
  KINOMEscan FER: 0
[4]
  KINOMEscan ZAP70: 0
[5]
  KINOMEscan CDK7: 0
[6]
  KINOMEscan CSNK2A1: 0
[7]
  KINOMEscan SRPK2: 54
[8]
  KINOMEscan CDK3: 20
[9]
  KINOMEscan TNK2: 0
[10]
  KINOMEscan CAMK1D: 3
